C[C@H]1[C@H](C)CC[C@]2(C(=O)O)CC[C@]3(C)C(=CC[C@@H]4[C@@]5(C)CC[C@H](O)C(C)(C)[C@@H]5CC[C@]43C)[C@H]12
solubility (mole fraction)
Settings	278.15 K	283.15 K	288.15 K	293.15 K	298.15 K	303.15 K	308.15 K	313.15 K	318.15 K	323.15 K
in acetone	0.000384	0.000473	0.00058	0.000707	0.000836	0.001	0.00119	0.00139	0.00162	0.00187
in methanol	0.000447	0.000505	0.000579	0.000662	0.000746	0.000842	0.000955	0.00107	0.00121	0.00135
in water	1.16e-07	1.34e-07	1.55e-07	1.76e-07	2.02e-07	2.28e-07	2.57e-07	2.88e-07	3.18e-07	3.54e-07

Reference: BigSolDB 2.1
